The values below are quoted from earlier work in patent EP0530832A1, “Method for processing a silver halide color photographic light-sensitive material” (KONICA CORPORATION, priority 1991, dated 1993).

For this data set, the system named is rats. The following applies: rats in an environment containing 15 ppm of formalin.

Turning to `C=O` [formalin], the nasal cancers entry was “developed nasal cancers”.
